According to patent publication US12157746B2, “Tetrahydro-1H-pyrazino[2,1-a]isoindolylquinoline compounds for the treatment of autoimmune disease” (F. HOFFMANN-LA ROCHE AG, priority 2018, dated 2024):

Biological target: T1, human TLR9 (Homo sapiens, UniProt Q9NR96)
T1 sequence (Q9NR96 26-1032): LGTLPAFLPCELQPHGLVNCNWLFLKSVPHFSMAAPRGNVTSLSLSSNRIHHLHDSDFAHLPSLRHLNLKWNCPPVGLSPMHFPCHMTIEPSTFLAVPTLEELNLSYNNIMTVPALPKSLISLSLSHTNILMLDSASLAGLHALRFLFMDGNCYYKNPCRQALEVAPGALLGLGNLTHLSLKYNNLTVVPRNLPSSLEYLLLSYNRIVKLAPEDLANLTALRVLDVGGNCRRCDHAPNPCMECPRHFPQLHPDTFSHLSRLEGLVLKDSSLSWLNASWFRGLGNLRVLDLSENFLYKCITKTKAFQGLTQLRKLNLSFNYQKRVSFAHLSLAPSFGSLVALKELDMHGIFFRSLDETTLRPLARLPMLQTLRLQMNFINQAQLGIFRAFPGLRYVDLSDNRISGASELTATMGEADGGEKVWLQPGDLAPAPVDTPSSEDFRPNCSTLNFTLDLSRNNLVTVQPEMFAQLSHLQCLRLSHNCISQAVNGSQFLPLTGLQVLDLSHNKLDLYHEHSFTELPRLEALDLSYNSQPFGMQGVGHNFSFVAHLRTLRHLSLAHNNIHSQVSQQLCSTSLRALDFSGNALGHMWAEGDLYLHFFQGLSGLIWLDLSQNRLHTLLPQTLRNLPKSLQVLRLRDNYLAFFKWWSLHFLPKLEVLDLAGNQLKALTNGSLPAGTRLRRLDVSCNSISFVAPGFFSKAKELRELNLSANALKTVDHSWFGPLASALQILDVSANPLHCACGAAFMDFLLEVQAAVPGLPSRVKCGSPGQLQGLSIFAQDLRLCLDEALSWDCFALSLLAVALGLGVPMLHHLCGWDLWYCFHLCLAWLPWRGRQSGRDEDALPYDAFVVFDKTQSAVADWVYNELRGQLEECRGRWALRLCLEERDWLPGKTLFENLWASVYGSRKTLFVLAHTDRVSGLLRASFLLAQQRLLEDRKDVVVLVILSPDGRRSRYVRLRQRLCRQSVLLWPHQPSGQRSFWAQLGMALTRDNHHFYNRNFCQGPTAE
Assay: HEK293-Blue-hTLR-9 cells assay
Type: cell-based
Conditions: HEK293-Blue-hTLR9 cells, ODN2006 stimulation, 20 hrs, SEAP reporter; read-out: HEK/hTLR9 IC50
From the text: HEK293-Blue-hTLR-9 Cells Assay:
A stable HEK293-Blue-hTLR-9 cell line was purchased from InvivoGen (Cat. #: hkb-htlr9, San Diego. California USA). These cells were originally designed for studying the stimulation of human TLR9 by monitoring the activation of NF-κB. A SEAP (secreted embryonic alkaline phosphatase) reporter gene was placed under the control of the IFN-β minimal promoter fused to five NF-κB and AP-1-binding sites. The SEAP was induced by activating NF-κB and AP-1 via stimulating HEK-Blue hTLR9 cells with TLR9 ligands. Therefore the reporter expression was declined by TLR9 antagonist under the stimulation of a ligand, such as ODN2006 (Cat. #: tlrl-2006-1, Invivogen, San Diego, California USA), for incubation of 20 hrs. The cell culture supernatant SEAP reporter activity was determined using QUANTI-Blue™ kit (Cat. #: rep-qb1, Invivogen, San Diego, California, USA) at a wavelength of 640 nm, a detection medium that turns purple or blue in the presence of alkaline phosphatase.
HEK293-Blue-hTLR9 cells were incubated at a density of 250.000-450,000 cells/mL in a volume of 170 μL in a 96-well plate in Dulbecco's Modified Eagle's medium (DMEM) containing 4.5 g/L glucose, 50 U/mL penicillin, […], […], 2 mM L-glutamine, 10% (v/v) heat-inactivated fetal bovine serum with addition of 20 μL test compound 1n a serial dilution in the presence of final DMSO at 1% and 10 μL of 20 uM ODN2006 in above DMEM, perform incubation under 37° C. in a CO2 incubator for 20 hrs. Then 20 μL of the supernatant from each well was incubated with 180 μL Quanti-blue substrate solution at 37° C. for 2 h and the absorbance was read at 620˜655 nm using a spectrophotometer. The signaling pathway that TLR9 activation leads to downstream NF-κB activation has been widely accepted, and therefore similar reporter assay was modified for evaluating TLR9 antagonist.

Row | SMILES | IC50 [nM]
1 | C[C@@H]1CN(c2ccc(C#N)c3ncsc23)C[C@@H]2c3ccc(N4CCNCC4)cc3CN12 [Example 6, 7-[(4R,10bS)-4-methyl-8-piperazin-1-yl-3,4,6,10b-tetrahydro-1H-pyrazino[2,1-a]isoindol-2-yl]-1,3-benzothiazole-4-carbonitrile] | 156
2 | C[C@@H]1CN(c2ccc(C#N)c3ncccc23)C[C@@H]2c3ccc(N4C[C@@H](F)[C@@H](N)C4)cc3CN12 [Example 46, 5-[(4R,10bS)-8-[(3S,4R)-3-amino-4-fluoro-pyrrolidin-1-yl]-4-methyl-3,4,6,10b-tetrahydro-1H-pyrazino[2,1-a]isoindol-2-yl]quinoline-8-carbonitrile] | 144
3 | C[C@@H]1CN(c2ccc(C#N)c3ncccc23)C[C@@H]2c3ccc(OCCN(C)C)cc3CN12 [Example 25, 5-[(4R,10bS)-8-[2-(dimethylamino)ethoxy]-4-methyl-3,4,6,10b-tetrahydro-1H-pyrazino[2,1-a]isoindol-2-yl]quinoline-8-carbonitrile] | 116
4 | C[C@@H]1CN(c2ccc(C#N)c3ncccc23)C[C@@H]2c3ccc(N4CCOC5CNCC54)cc3CN12 (stereo partly drawn) [Example 52, 5-[(4R,10bS)-8-(3,4a,5,6,7,7a-hexahydro-2H-pyrrolo[3,4-b][1,4]oxazin-4-yl)-4-methyl-3,4,6,10b-tetrahydro-1H-pyrazino[2,1-a]isoindol-2-yl]quinoline-8-carbonitrile] | 195
5 | C[C@@H]1CN(c2ccc(C#N)n3nccc23)C[C@@H]2c3ccc(N[C@H]4CNC[C@H]4F)cc3CN12 [Example 98, 4-[(4R,10bS)-8-[[(3S,4R)-4-fluoropyrrolidin-3-yl]amino]-4-methyl-3,4,6,10b-tetrahydro-1H-pyrazino[2,1-a]isoindol-2-yl]pyrazolo[1,5-a]pyridine-7-carbonitrile] | 197
6 | [2H]c1ccc2c(N3C[C@@H](C)N4Cc5cc(N6CC(C)(N)C6)ccc5[C@H]4C3)ccc(C#N)c2n1 [Example 92, 5-[(4R,10bS)-8-(3-amino-3-methyl-azetidin-1-yl)-4-methyl-3,4,6,10b-tetrahydro-1H-pyrazino[2,1-a]isoindol-2-yl]-2-deuterio-quinoline-8-carbonitrile] | 148
7 | C[C@@H]1CN(c2ccc3c(c2)CN2[C@H](C)CN(c4ccc(C#N)n5nccc45)C[C@H]32)CCN1 [Example 97, 4-[(4R,10bS)-4-methyl-8-[(3R)-3-methylpiperazin-1-yl]-3,4,6,10b-tetrahydro-1H-pyrazino[2,1-a]isoindol-2-yl]pyrazolo[1,5-a]pyridine-7-carbonitrile] | 161

The next molecules have a lower IC50 than those just listed; values first:

Row | IC50 [nM] | SMILES
8 | 95.2 | CO[C@H]1CN(c2ccc3c(c2)CN2[C@H](C)CN(c4ccc(C#N)c5ncccc45)C[C@H]32)C[C@@H]1N (relative stereo) [Example 16, 5-[(4R,10bS)-8-[trans-3-amino-4-methoxy-pyrrolidin-1-yl]-4-methyl-3,4,6,10b-tetrahydro-1H-pyrazino[2,1-a]isoindol-2-yl]quinoline-8-carbonitrile]
9 | 92.4 | CN[C@H]1CN(c2ccc3c(c2)CN2[C@H](C)CN(c4ccc(C#N)c5ncccc45)C[C@H]32)C[C@@H]1OC [Example 23, 5-[(4R,10bS)-8-[(3S,4S)-3-methoxy-4-(methylamino)pyrrolidin-1-yl]-4-methyl-3,4,6,10b-tetrahydro-1H-pyrazino[2,1-a]isoindol-2-yl]quinoline-8-carbonitrile]
10 | 78.3 | C[C@@H]1CN(c2ccc(C#N)c3ncccc23)C[C@@H]2c3ccc(N4C[C@@H](N)[C@](C)(O)C4)cc3CN12 [Example 45A, 5-[(4R,10bS)-8-[(3R,4R)-4-amino-3-hydroxy-3-methyl-pyrrolidin-1-yl]-4-methyl-3,4,6,10b-tetrahydro-1H-pyrazino[2,1-a]isoindol-2-yl]quinoline-8-carbonitrile]
11 | 67.9 | C[C@@H]1CN(c2ccc(C#N)n3nccc23)C[C@@H]2c3ccc(N4CC5CNCC(C4)O5)cc3CN12 [Example 107, 4-[(4R,10bS)-4-methyl-8-(9-oxa-3,7-diazabicyclo[3.3.1]nonan-3-yl)-3,4,6,10b-tetrahydro-1H-pyrazino[2,1-a]isoindol-2-yl]pyrazolo[1,5-a]pyridine-7-carbonitrile]
